Entries after “also recorded” stand apart in the source; their conditions may differ.

Type in all cases: in vivo, mouse
Experiment [1] deals with TPH2 mRNA. Briefly: TPH2 mRNA levels in raphe slice preparations from intact male mice by real-time RT-PCR. The method, then:
Ovariectomized C57/BL6 female mice (13 to 16 wks of age) were from Charles River Laboratories and intact C57/BL6 male mice (13 to 16 wks of age) were from Taconic Laboratories. Animals were fed a soy-free rodent chow and allowed a minimum of one week to recuperate from surgery and shipping. Mice were dosed subcutaneously in the morning (once daily for 4 days) with 0.1 cc of vehicle (sesame oil) or compound (dose is indicated for each experiment). Approximately six hours following the fourth dose, mice were deeply anesthetized with ketamine/xylazine.
For real-time RT-PCR analyses brains were removed from the skull, placed ventral side up in a mouse brain block on ice, and ice-cold razor blades are inserted into the block at 1 mm intervals. The caudal extent of the hypothalamus was used as an anatomical marker for the placement of the first razor blade, and 4 blades are placed in sequential slots, caudally. The four sections are examined and the two that encompass the greatest extent of the dorsal raphe are placed in a tube containing RNA-later and placed at 4° C. overnight. Brain slices were removed from RNALATER (Ambion) after 24 hr and stored at −80° C. in fresh tubes. An n of seven animals was used per treatment group for real-time RT-PCR studies. For in situ hybridization histochemistry brains are removed from the skull and placed ventral side up on powdered dry ice and frozen brains are stored at −80° C. until sectioning. An n of 5 to 6 animals was used per treatment group for in situ hybridization histochemistry analyses.
The murine TPH2 primers were mTPH2-514F and mTPH2-585R and the murine TPH2 probe was mTPH2-565T. mTPH2-565T was labeled with the fluorescent dye FAM and the quencher TAMRA.
Isolation of total RNA from murine raphe slices for TAQMAN analysis has been described in Example 2. Genomic DNA was removed from the total RNA samples using the DNA-FREE kit (Ambion) and cDNA synthesis performed using Multiscribe RT and the TaqMan Gold RT reagents (ABI). Reverse transcription was halted by the addition of EDTA. Samples were transferred to a storage plate and stored at −20° C.
Real-time PCR analyses using TAQMAN was as follows. A 2.5 μL of cDNA was added to each well of a 96well plate with 22.5 μl of TaqMan® reaction mix (1× Universal Master Mix (ABI), 20 nM forward and reverse 18S rRNA control primers, and 100 nM 18S rRNA control probe (ABI) and 300 nM mTPH2-514F and mTPH2-585R primers, 200 nM mTPH2-565T probe. Samples were run on an ABI PRISM 7700 Sequence Detection Instrument (Applied Biosystems (ABI), Foster City, Calif.) and collected data was analyzed using Merck Biometrics TAQMAN Plus program and statistical significance determined using a one-way ANOVA (CMG, Merck Biometrics).

Experiment [2] relates to TPH2 mRNA. Briefly: TPH2 mRNA levels in murine raphe slice preparation of ovariectomized female mice by real-time RT-PCR. The text has this:
Female mice (13 to 16 wks of age) were ovariectomized (C57BL/6s from Charles River; ER Knockout animals from Taconic). Animals were fed a soy-free rodent chow and allowed a minimum of one week to recuperate from surgery and shipping. […] Approximately six hours following the fourth dose, mice were deeply anesthetized with ketamine/xylazine and brains were removed from the skull, placed ventral side up in a mouse brain block on ice, and ice-cold razor blades were inserted into the block at 1 mm intervals. The caudal extent of the hypothalamus was used as an anatomical marker for the placement of the first razor blade, and 4 blades were placed in sequential slots, caudally. The four sections were examined and the two that encompassed the greatest extent of the dorsal raphe were placed in a tube containing […] (Ambion, Austin, Tex.) and placed at 4° C. overnight. Brain slices were removed from […] after 24 hours and stored at −80° C. in fresh tubes.
Two TPH2 primer and probe sets were generated for use in detecting TPH2 by real-time RT-PCR. Murine TPH2 forward primers were mTPH2-514F and mTPH2-1270F, their corresponding sequences are 5′-[…]-3′ (SEQ ID NO:7; corresponding to nucleotides 514 to 535 of the nucleotide sequence encoding TPH2) and 5′-[…]-3′ (SEQ ID NO:8; corresponding to nucleotides 1270 to 1290 of the nucleotide sequence encoding TPH2), respectively. The murine TPH2 reverse primers were mTPH2-585R and mTPH2-1344R, their corresponding sequences are 5′-[…]-3′ (SEQ ID NO:9; corresponding to nucleotides 567 to 585 of the nucleotide sequence encoding TPH2) and 5′-[…]-3′ (SEQ ID NO:10; corresponding to nucleotides 1324 to 1344 of the nucleotide sequence encoding TPH2), respectively. The murine TPH2 probes were mTPH2-565T and mTPH2-1292T, their corresponding sequences are: 5′-[…]-3′ (SEQ ID NO:11; corresponding to nucleotides 539 to 565 of the nucleotide sequence encoding TPH2) and 5′-[…]-3′ (SEQ ID NO:12; corresponding to nucleotides 1292 to 1317 of the nucleotide sequence encoding TPH2), respectively. The probes were labeled at the 5′ end with FAM and the 3′ end with TAMRA.
Isolation of total RNA from mouse raphe slices for real-time PCR analysis using the TAQMAN ABI PRISMS 7700 Detection System, Applied Biosystems, Foster City, Calif. was as follows. Samples were stored in […] at 4° C. overnight followed by removal of […] and storage at −80° C. until isolation of the total RNA (2 slices weigh 25 to 50 mg). Slices were removed from −80° C. and placed in 1.0 mL TRIZOL Reagent in FASTPREP processing tubes. Slices were homogenized with one pass at setting 6 for 30 seconds in FASTPREP 120 homogenizer using LYSING MATRIX D tubes with bead matrix followed by 20 seconds at setting 6 after all samples had been processed. Samples were set at room temperature for 5 minutes to allow for complete dissociation of nucleoprotein complexes followed by centrifugation of the samples at 12,000×g for 5 minutes at 4° C. Homogenates were transferred to 1.5 mL; microcentrifuge tubes and 100 μL BCP (Bromo-3-chloropropane) was added. Samples were vortexed for 15 seconds and set at room temperature for 2 to 3 minutes. Samples were centrifuged at 12,000×g for 15 minutes at 4° C. The aqueous layer was removed and placed in a new RNAse-free sterile 1.5 mL microcentrifuge tube. Five μL of 5 mg/μL glycogen was added to each sample and the samples were vortexed. Five hundred μL of isopropanol was added to each sample. The samples were vortexed for 15 seconds, set at room temperature 10 minutes, followed by centrifugation at 12,000×g for 15 minutes at 4° C. Supernatants were decanted and pellets washed with 500 μL ice cold 75% ethanol.

In experiment [3] the test system is TPH2 mRNA. Briefly: TPH2 mRNA in murine DRN by in situ hybridization histochemistry. To be noted: for reduction of TPH2 mRNA levels in DRN (densitometry): ovariectomized female mice, FIG. 13B.
Another experiment deals with TPH1 mRNA. The experiment in a line: TPH1 mRNA in murine DRN by in situ hybridization histochemistry (TPH1-892 antisense riboprobe). Conditions: 0.2 mpk s.c. once daily for four days; ovariectomized mice; FIG. 5A.

On to `CC#C[C@]1(O)CC[C@H]2[C@@H]3CCC4=CC(=O)CCC4=C3[C@@H](c3ccc(N(C)C)cc3)C[C@@]21C` [mifepristone], for which the “effect on the dexamethasone reduction of TPH2 mRNA levels” value in the experiment on TPH2 mRNA [1] (co-administered with 1 mg/kg dexamethasone, FIG. 15, 1 mg/kg) is given as “blocked; also recorded: antagonizes”; with TPH2 mRNA [2] (co-administered with 3 mg/kg dexamethasone, ovariectomized female mice, FIG. 9, 3 mg/kg), “blocked; also recorded: antagonizes”. In addition, in the experiment with TPH2 mRNA [1] (mifepristone alone, 30 mg/kg), the “effect on TPH2 message levels” value is listed as “no effect”. For the same molecule, in the experiment on TPH2 mRNA [2] (RU486 10 mpk once daily, TPH2-514 or TPH2-1270 primer/probe set, FIG. 7, 10 mg/kg), the “effect on TPH2 mRNA expression compared to vehicle” value was “decrease; also recorded: significant reduction”. The “effect on TPH2 mRNA expression” value with TPH2 mRNA [2] (RU486 20 mpk once daily, TPH2-514 primer/probe set, FIG. 8, 20 mg/kg) is recorded as “further reduction; also recorded: significant reduction”. In addition, in the experiment on TPH2 mRNA [2] (alone and mixed with dexamethasone, Example 2), the “glucocorticoid agonist/antagonist character shown by TPH2 mRNA expression” value was “mixed or partial agonist”. The “reduction in TPH2 mRNA levels” value in the experiment with TPH2 mRNA [2] (mifepristone alone, 20 mg/kg, FIG. 9) is recorded as 28%.
With `C[C@@H]1C[C@H]2[C@@H]3CCC4=CC(=O)C=C[C@]4(C)[C@@]3(F)[C@@H](O)C[C@]2(C)[C@@]1(O)C(=O)CO` [dexamethasone], the “reduction in TPH2 mRNA levels” value in the experiment on TPH2 mRNA [1] (1 mpk once daily for four days, FIG. 15) was determined as 26%; in the experiment on TPH2 mRNA [2] (0.1 mg/kg s.c. once daily for four days, FIG. 14), 23%; in the experiment with TPH2 mRNA [2] (3 mg/kg s.c. once daily for four days, FIG. 14), 44%; in the experiment on TPH2 mRNA [2] (dexamethasone 3 mg/kg once daily for four days, FIG. 9) it was 40%. Besides, the “reduction in TPH2 message levels” value with TPH2 mRNA [2] (1 mg/kg once daily for four days, FIG. 14) is recorded as 30%. Moreover, the “reduction of TPH2 mRNA levels in DRN (densitometry)” value turned out to be 28% in the experiment on TPH2 mRNA [3] (3 mg/kg s.c. once daily for four days) and 36% with TPH2 mRNA [3] (10 mg/kg s.c. once daily for four days).
As for `C[C@]12CC[C@@H]3c4ccc(O)cc4CC[C@H]3[C@@H]1CC[C@@H]2O` [17β-estradiol], the “effect on TPH2 mRNA levels” value with TPH2 mRNA [1] (dose not stated) is recorded as “no effect”. In the experiment on TPH2 mRNA [2] (0.025 to 0.2 mpk s.c. once daily for four days, FIG. 4C), the “effect on expression of TPH2 mRNA in raphe slice” value is listed as “no apparent effect”. For the same molecule, the “TPH1 mRNA induction in the DRN” value with TPH1 mRNA amounted to 3 fold. In addition, in the experiment with TPH2 mRNA [3] (0.2 mpk s.c. once daily for four days, ovariectomized mice, TPH2c riboprobe, FIG. 5B), the “effect on TPH2 mRNA in the DRN” value is “no apparent effect”.

The values above are taken from patent US20070274916A1, “Method for Identifying Compounds that Affect Expression of Tryptophan Hydroxylase Isoform 2” (priority 2003, published 2007).
